EP0241618A2, “Phenyl ethanol amine derivative for use as an oncolytic medicament” (ELI LILLY AND COMPANY, priority 1985, dated 1987)

Tests used:
6C3HED Lymphosarcoma = test: In vivo tumor growth inhibition, subcutaneously implanted tumor in mice; settings: intravenous injection twice daily for five days, started the day following inoculation
Procedure: (§1) The compound of the above example has been extensively evaluated for oncolytic activity in in vivo laboratory studies. In a typical experiment, laboratory mice were infected by subcutaneous implantation of a tumor tissue in the axillary region of the body. The implantations were accomplished by means of a trocar. Initial tumor size in each animal generally was about 2 square millimeters. Control animals received saline. Tumors were measured using vernier calipers (length and width in mm) following a specified period of treatment. The length and width measurements were converted to tumor weight by the formula: • The percent inhibition of tumor growth was then calculated for each dose level at which the compound was evaluated. Typical tumor systems implanted and against which the compound was evaluated include the CA-755 strain of adenocarcinoma, the M-5 ovarian carcinoma, the 6C3HED lymphosarcoma, the X-5563 plasma cell myeloma, the Lewis lung carcinoma, colon carcinoma-26, and C3H mammary adenocarcinoma.
(§2) Each test group consisted of ten mice. R-N-(2-phenyl-2-hydroxyethyl)-1,i-dimethyl-3-(4-aminocarbonylphenyl)propylamine hydrochloride was dissolved in 5% aqueous saline and administered twice daily for five days as a 0.2 ml intravenous injection. Treatment was initiated on the day following inoculation of the test animals.

[1] = test system: C3H Mammary Adenocarcinoma; test: as above; settings: intravenous injection twice daily for five days, started the day following inoculation
Procedure: as §1, §2

CA-755 Adenocarcinoma = test: as above; settings: intravenous injection twice daily for five days, started the day following inoculation
Procedure: as §1, §2

Lewis Lung Carcinoma = test: as above; settings: intravenous injection twice daily for five days, started the day following inoculation
Procedure: as §1, §2

[2] = test system: X-5563 Plasma Cell Myeloma; test: as above; settings: intravenous injection twice daily for five days, started the day following inoculation
Procedure: as §1, §2

Colon Carcinoma-26 = test: In vivo tumor growth inhibition, delayed treatment of established tumor in mice; settings: I.V. injection twice daily for five days, 3 days delay following inoculation
Procedure: as §1
(§3) Table II presents the results of studies carried out substantially as described above, except the treatment regimens were delayed for a short period following inoculation to permit the tumor to become established and start growing. Treatment consisted of I.V. injection of 02 ml of the appropriate amount of R-N-(2-phenyl-2-hydroxyethyl)-1,1-dimethyl-3-(4-aminocarbonylphenyl)propylamine hydrochloride in 5% aqueous saline twice daily for five days. Tumors were then measured as described above and compared with untreated controls.

M-5 Ovarian Carcinoma = test: as above; settings: I.V. injection twice daily for five days, 5 days delay following inoculation
Procedure: as §1, §3

cell culture = test: Antimitotic activity in cell culture; type: cell-based; settings: concentration at which activity is seen
Text: (§4) The potent oncolytic activity of the compound to be employed in the present method of treatment has been established in standard tests designed to evaluate antitumor activity. […] The effect on spindle; microtubules appears to reflect a specific effect on the microtubule organizing center of the spindle, i.e., the centrosomes. These studies have been documented by immunofluorescent light microscopy, transmission electron microscopy and flow cytometric techniques. […] In cell culture, the compound has antimitotic activity at 2.5 u.g/ml and affects mitochondrial function at 0.01 u.g/ml as measured by alterations in Rhodamine 123 binding.

[3] = test system: Chinese hamster ovary cells; test: Cell cycle accumulation in cells grown in low calcium medium; type: cell-based
Text: as §4

cytoplasmic microtubules = test: Cell biology studies of microtubules (immunofluorescent light microscopy, transmission electron microscopy, flow cytometry); type: cell-based; settings: appears to affect only the spindle microtubules
Text: as §4

CC(C)(CCc1ccc(C(N)=O)cc1)NC[C@H](O)c1ccccc1.Cl [Compound, R-N-(2-phenyl-2-hydroxyethyl)-1,1-dimethyl-3-(4-aminocarbonylphenyl)propylamine hydrochloride]
% Inhibition (6C3HED Lymphosarcoma; Dose 20 mg/kg): 11%
% Inhibition (6C3HED Lymphosarcoma; Dose 40 mg/kg): 9%
% Inhibition (6C3HED Lymphosarcoma; Dose 80 mg/kg): 23%
% Inhibition ([1]; Dose 20 mg/kg): 57%
% Inhibition ([1]; Dose 40 mg/kg): 95%
% Inhibition ([1]; Dose 80 mg/kg): 96%
% Inhibition (CA-755 Adenocarcinoma; Dose 10 mg/kg): 79%
% Inhibition (CA-755 Adenocarcinoma; Dose 20 mg/kg): 95%
% Inhibition (CA-755 Adenocarcinoma; Dose 40 mg/kg): 92%
% Inhibition (CA-755 Adenocarcinoma; Dose 80 mg/kg): 95%
% Inhibition (Lewis Lung Carcinoma; Dose 20 mg/kg): 35%
% Inhibition (Lewis Lung Carcinoma; Dose 40 mg/kg): 68%
% Inhibition (Lewis Lung Carcinoma; Dose 80 mg/kg): 81%
% Inhibition ([2]; Dose 20 mg/kg): 29%
% Inhibition ([2]; Dose 40 mg/kg): 21%
% Inhibition ([2]; Dose 80 mg/kg): 65%
% Inhibition (Colon Carcinoma-26; Dose 20 (mg/ml)): 30%
Deaths/total mice in group (Colon Carcinoma-26; Dose 20 (mg/ml)): 0/10
% Inhibition (Colon Carcinoma-26; Dose 40 (mg/ml)): 61%
Deaths/total mice in group (Colon Carcinoma-26; Dose 40 (mg/ml)): 1/10
% Inhibition (Colon Carcinoma-26; Dose 80 (mg/ml)): 64%
Deaths/total mice in group (Colon Carcinoma-26; Dose 80 (mg/ml)): 4/9
% Inhibition (M-5 Ovarian Carcinoma; Dose 20 (mg/ml)): 40%
Deaths/total mice in group (M-5 Ovarian Carcinoma; Dose 20 (mg/ml)): 0/10
% Inhibition (M-5 Ovarian Carcinoma; Dose 40 (mg/ml)): 61%
Deaths/total mice in group (M-5 Ovarian Carcinoma; Dose 40 (mg/ml)): 0/10
% Inhibition (M-5 Ovarian Carcinoma; Dose 80 (mg/ml)): 81%
Deaths/total mice in group (M-5 Ovarian Carcinoma; Dose 80 (mg/ml)): 0/10
minimal effective concentration (cell culture): 2.5 µg/mL
S-phase accumulation [3]: causes an S-phase accumulation
effect on cytoplasmic microtubules (cytoplasmic microtubules): no apparent effect
